We go through nine molecules from paper PMC10384408, “Anticancer Tungstenocenes with a Diverse Set of (O,O–), (O,S–) and (O,N–) Chelates—A Detailed Biological Study Using an Improved Evaluation via 3D Spheroid Models” (Pharmaceutics, 2023).

For data set [1], the system named is HT29 multicellular tumor spheroids. As to the kind of experiment: Resazurin assay, HT29 3D spheroids. It is filed as cell-based, human. The settings on record: 96 h; for IC50: spheroids. As for the experimental part: (§1) CH1/PA-1 (ovarian teratocarcinoma), SW480 (colon carcinoma) and A549 (non-small cell lung cancer) cells were maintained as described in the reference. IMR-90 human fetal lung fibroblasts (from the European Collection of Authenticated Cell Cultures, Porton Down, Salisbury, UK) were cultured in Stable Cell^TM DMEM/F12 supplemented with 0.01 mg/mL human recombinant insulin (both purchased from Sigma-Aldrich) and 10% fetal bovine serum (FBS, BioWest, Nuaillé, France). Human colon carcinoma cell lines HCT116 and HT29 (both kindly provided by the Institute of Cancer Research, Department of Medicine I, Medical University of Vienna, Austria) were cultured in McCoy’s 5a medium supplemented with 4 mM L-glutamine (both purchased from Sigma-Aldrich) and 10% FBS. MCF-7 human breast adenocarcinoma cells (kindly provided by M. Ogris, Department of Pharmaceutical Sciences, University of Vienna, Austria) were maintained in DMEM (high glucose) supplemented with 4 mM L-glutamine, 0.1 mg/mL human insulin (all purchased from Sigma-Aldrich) and 10% FBS. All cell lines were grown as monolayers in 75 cm^2 culture flasks (CytoOne, Starlab, Hamburg, Germany) at 37 °C in a humidified atmosphere containing 5% CO2.
For growing multicellular tumor spheroids, 400 HCT116, 400 HT29 or 800 MCF-7 cells per well were plated into round-bottom ultra-low attachment 96-well plates (Corning, Glendale, AZ, USA) in the media described above and incubated at 37 °C for 96 h. Spheroids were treated with 10 µM of the two most cytotoxic compounds 3 and 4 for another 96 h. The diameters of the spheroids were measured with Cell^F software under a CKX41 Olympus microscope before treatment and in constant daily intervals over the 96 h treatment period. For statistical analysis the t-test with Welsh’s correction was implemented in GraphPad Prism software (Version 6.01).
For the resazurin assay in monolayer cultures, cells were seeded into 96-well microculture plates (CytoOne, tissue culture treated, Starlab, Hamburg, Germany) in densities of 2 × 10^3 HCT116, 2 × 10^3 HT29 and 4 × 10^3 MCF-7 cells per well (each in 100 µL). For tests in 3D cultures, spheroids were grown as described above. After 24 h (for monolayers) or 4 days (for spheroids) the test compounds in the appropriate medium were added in serial dilution to the plates to obtain a total volume of 200 µL/well. Wells without cells, containing medium and resazurin (Alfa Aesar, Thermo Fisher, Kandel, Germany) solution were used as blanks. After 96 h exposure 20 µL of the resazurin solution (440 µM) were added to each well, followed by a 4 h (2D) or 12 h (3D) incubation period. Resorufin fluorescence was quantified at 530 nm (and a reference wavelength of 620 nm) by using a microplate reader (Synergy HT, BioTek) with Gen5^TM 3.10 software (BioTek).
Background: The colour change of resazurin is a common sign of viable cells or microbes.

For data set [2], the system named is IMR-90 human lung fibroblasts. In words: MTT cytotoxicity assay, IMR-90 fibroblasts. It is filed as cell-based. To be noted: exposure time 96 h, mean ± SD. As for the experimental part:
as §1
Exponentially growing cells were plated into 96-well microculture plates (CytoOne, tissue culture treated, Starlab, Hamburg, Germany) in densities of 1 × 10^3 CH1/PA-1, 2 × 10^3 SW480, 3 × 10^3 A549 and 7 × 10^3 IMR-90 cells per well (each in 100 µL). After a 24 h preincubation, drugs were added in serial dilution to give a final volume of 200 µL/well and exposed for 96 h. At the end of the exposure, the drug solutions were replaced by 100 µL RPMI 1640/MTT mixture (7:1 ratio). MTT (3-(4,5-dimethylthiazol-2-yl)-2,5-diphenyl-2H-tetrazolium bromide), (Acros Organics, Geel, Belgium) solution was prepared in phosphate-buffered saline (5 mg/mL) and mixed with RPMI1640 medium supplemented with 4 mM L-glutamine (both from Sigma-Aldrich) and 10% FBS. After 4 h incubation, the formazan crystals were solubilized in 150 µL of DMSO per well. Absorbance was measured at 550 nm (and at 690 nm as a reference) with a microplate reader (ELx808, BioTek, Winoosky, VT, USA) and Gen5^TM 3.08 software (BioTek). The 50% inhibitory concentrations (IC50) relative to untreated controls were interpolated from concentration-effect curves. At least three biologically and technically independent experiments were performed.
On the technique in general: Tetrazolium assays rely on reduction of a dye to a coloured formazan, in cell work by metabolically active cells.

The subject of data set [3] is HCT116, HT29 and MCF-7 cell lines. In words: ROS detection (DCFH-DA assay). To be noted: 2, 20, 100 and 200 µM, 2 h. The class given is cell-based, human. As for the experimental part:
Reactive oxygen species (ROS) generation was measured by means of the DCFH-DA assay. […] On the following day, cells were washed with 200 µL Hanks’ balanced salt solution (HBSS, Sigma-Aldrich, containing 1% FBS) and stained with 100 µL of 25 µM DCFH-DA (2′,7′-dichlorofluorescein diacetate, Sigma-Aldrich) in HBSS (containing 1% FBS) for 45 min at 37 °C in the dark. After the incubation period, cells were washed with 200 µL HBSS (1% FBS) and loaded with compounds at concentrations of 2 µM, 20 µM, 100 µM and 200 µM in 200 µL phenol-red-free MEM (1% FBS) in triplicates. As positive controls, cells were treated with 200 µM and 400 µM tert-butylhydroperoxide (Sigma-Aldrich). Wells containing only phenol-red-free medium with 1% FBS were used as blanks, and non-drug treated, cell containing wells as reference values. Fluorescence (excitation: 485/20 nm, emission: 516/20 nm) was recorded in 10 min intervals with the Synergy HT reader (BioTek) over 2 h.

Data set [4] can be described thus: Aqueous stability by UV/Vis in PBS. It is filed as physicochemical. The settings on record: 24 h, 293 K, 1 vol% DMSO. As for the experimental part: Stock solutions in DMSO of compounds 1–10 were utilized to determine the solubility in PBS by adding 1 vol% of the stock solution to a suitable amount of PBS. […] UV/Vis data were recorded on a Perkin Elmer Lambda 650 UV/Vis Spectrophotometer with a Peltier element for temperature control.
In order to examine the stability of the compounds in aqueous solution, UV/Vis measurements were performed every hour during 24 h at 293 K. Solutions of compounds 1–10 were prepared in PBS (10%) from a previously prepared DMSO stock solution of each compound. The total concentration of DMSO was 1 vol% for the final complex solutions of 1–10.

Some results are limits rather than exact numbers.

Broadly, the IC50 is the concentration at which inhibition is half-maximal. In the case of `Cc1occc(=S)c1[O-].F[P-](F)(F)(F)(F)F.[W+4].c1cc[cH-]c1.c1cc[cH-]c1` [Compound 2, Bis(η^5-cyclopentadienyl)[2-methyl-3-(oxo-κO)-4-(1H)-pyran-4-thionato-κS]tungsten(IV) hexafluorophosphate], in data set [1], the “ratio 3D/2D of IC50 values, HT29” value is more than 3.8 and the IC50 is more than 200 µM. In addition, in data set [2], half-maximal inhibition (IC50) required 107 ± 30 µM.

For the molecule `F[P-](F)(F)(F)(F)F.O=c1c([O-])c(-c2ccc(Cl)cc2)oc2ccccc12.[W+4].c1cc[cH-]c1.c1cc[cH-]c1` [Compound 3, Bis(η^5-cyclopentadienyl)[2-(4-chlorophenyl)-3-(oxo-κO)-4(H)-chromen-4-oato-κO]tungsten(IV) hexafluorophosphate], the “intracellular ROS levels” value in data set [3] is given as “Pronounced elevation of ROS levels”. The “ratio 3D/2D of IC50 values, HT29” value in data set [1] was found to be 5.1. The results for the half-inhibitory concentration (IC50) in data set [1] and in data set [2] were 86 ± 2 µM and 38.2 ± 0.4 µM, respectively. The “precipitation in PBS” value in data set [4] is recorded as “slowly precipitate out of the solution over time”.

On to `F[P-](F)(F)(F)(F)F.[O-]c1c(-c2ccc(Cl)cc2)oc2ccccc2c1=S.[W+4].c1cc[cH-]c1.c1cc[cH-]c1` [Compound 4, Bis(η^5-cyclopentadienyl)[2-(4-chlorophenyl)-3-(oxo-κO)-4(H)-chromen-4-thionato-κS]tungsten(IV) hexafluorophosphate], for which, in data set [3], the “intracellular ROS levels” value is listed as “concentration-dependent anti-oxidative properties”. The “ratio 3D/2D of IC50 values, HT29” value in data set [1] came out at 5.6. Also, the half-maximal inhibitory concentration (IC50) was 31 ± 6 µM in data set [1] and 11 ± 2 µM in data set [2]. In addition, the “precipitation in PBS” value in data set [4] is listed as “slowly precipitate out of the solution over time”.

For the molecule `F[P-](F)(F)(F)(F)F.O=C([O-])c1ccccn1.[W+4].c1cc[cH-]c1.c1cc[cH-]c1` [Compound 5, Bis(η^5-cyclopentadienyl)[2-(carboxylato-κO)-pyridine-κN]tungsten(IV) hexafluorophosphate], the half-inhibitory concentration (IC50) in data set [1] was more than 200 µM.

For `Cc1c([O-])c(=O)ccn1C.F[P-](F)(F)(F)(F)F.[W+4].c1cc[cH-]c1.c1cc[cH-]c1` [Compound 6, Bis(η^5-cyclopentadienyl)[1,2-dimethyl-3-(oxo-κO)-4-(1H)-pyridonato-κO]tungsten(IV) hexafluorophosphate], the IC50 in data set [1] is more than 200 µM.

In the case of `Cc1cc(=O)c([O-])co1.F[P-](F)(F)(F)(F)F.[W+4].c1cc[cH-]c1.c1cc[cH-]c1` [Compound 7, Bis(η^5-cyclopentadienyl)[2-methyl-5-(oxo-κO)-4-(1H)-pyran-4-ato-κO] tungsten(IV) hexafluorophosphate], the IC50 in data set [1] was more than 200 µM. In data set [4], the “precipitation in PBS” value is given as “slowly precipitate out of the solution over time”.

`Cc1cc(=S)c([O-])co1.F[P-](F)(F)(F)(F)F.[W+4].c1cc[cH-]c1.c1cc[cH-]c1` [Compound 8, Bis(η^5-cyclopentadienyl)[2-methyl-5-(oxo-κO)-pyran-4-(1H)-thionato-κS] tungsten(IV) hexafluorophosphate]: the half-maximal inhibitory concentration (IC50) in data set [1] is more than 200 µM. In addition, the “precipitation in PBS” value in data set [4] is given as “slowly precipitate out of the solution over time”.

In the case of `CCc1occc(=O)c1[O-].F[P-](F)(F)(F)(F)F.[W+4].c1cc[cH-]c1.c1cc[cH-]c1` [Compound 9, Bis(η^5-cyclopentadienyl)[2-ethyl-3-(oxo-κO)-4-(1H)-pyran-4-ato-κO] tungsten(IV) hexafluorophosphate], the “intracellular ROS levels” value in data set [3] was “Pronounced elevation of ROS levels”. Also, in data set [1], the half-maximal inhibitory concentration (IC50) was more than 200 µM.

For `CCc1occc(=S)c1[O-].F[P-](F)(F)(F)(F)F.[W+4].c1cc[cH-]c1.c1cc[cH-]c1` [Compound 10, Bis(η^5-cyclopentadienyl)[2-ethyl-3-(oxo-κO)-4-(1H)-pyran-4-thionato-κS] tungsten(IV) hexafluorophosphate], the “intracellular ROS levels” value in data set [3] is “relevant ROS generation”. Besides, in data set [1], the “ratio 3D/2D of IC50 values, HT29” value is recorded as more than 3.7 and the IC50 is more than 200 µM. In addition, in data set [4], the “precipitation in PBS” value is on record as “slowly precipitate out of the solution over time”. In data set [2], this molecule showed an IC50 of 114 ± 33 µM.
